From PubChem BioAssay AID248 (DTP/NCI, 2004)
Toxic doses and inconclusive results are not listed. Cut-off read from the data, not from the text of the source: active = T/C of 150% or more; inactive = T/C below 125%.

Tested on: L1210 leukemia ip in BDF1 mice, survival T/C
Assay: NCI In Vivo Anticancer Drug Screen. Data for tumor model L1210 Leukemia (intraperitoneal) in B6D2F1 (BDF1) mice
Conditions: endpoint: mean survival time, higher = longer survival
Summary of the method: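 Value reflects the ratio of survival in compound-treated mice to survival in vehicle-treated controls, with both groups carrying the same transplanted tumor.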

[1] = dose: 100.0 mg/kg/injection, schedule: Q01DX009 (ip), vehicle: saline with Tween-80
[2] = dose: 200.0 mg/kg/injection, schedule: Q01DX009 (ip), vehicle: saline with Tween-80
[3] = dose: 100.0 mg/kg/injection, schedule: Q04DX002 (ip), vehicle: saline
[4] = dose: 100.0 mg/kg/injection, schedule: Q01DX009 (ip), vehicle: Klucel (hydroxypropylcellulose) (HPC)
[5] = dose: 200.0 mg/kg/injection, schedule: Q01DX009 (ip), vehicle: Klucel (hydroxypropylcellulose) (HPC)
[6] = dose: 400.0 mg/kg/injection, schedule: Q01DX009 (ip), vehicle: Klucel (hydroxypropylcellulose) (HPC)
[7] = dose: 100.0 mg/kg/injection, schedule: Q01DX001 (ip), vehicle: Klucel (hydroxypropylcellulose) (HPC)
[8] = dose: 200.0 mg/kg/injection, schedule: Q01DX001 (ip), vehicle: Klucel (hydroxypropylcellulose) (HPC)
[9] = dose: 400.0 mg/kg/injection, schedule: Q01DX001 (ip), vehicle: Klucel (hydroxypropylcellulose) (HPC)
[10] = dose: 100.0 mg/kg/injection, schedule: Q01DX001 (ip), vehicle: saline
[11] = dose: 200.0 mg/kg/injection, schedule: Q01DX001 (ip), vehicle: saline
[12] = dose: 100.0 mg/kg/injection, schedule: Q04DX003 (ip), vehicle: Klucel (hydroxypropylcellulose) (HPC)
[13] = dose: 200.0 mg/kg/injection, schedule: Q04DX003 (ip), vehicle: Klucel (hydroxypropylcellulose) (HPC)
[14] = dose: 400.0 mg/kg/injection, schedule: Q04DX003 (ip), vehicle: Klucel (hydroxypropylcellulose) (HPC)
[15] = dose: 100.0 mg/kg/injection, schedule: Q04DX003 (ip), vehicle: saline
[16] = dose: 200.0 mg/kg/injection, schedule: Q04DX003 (ip), vehicle: saline
[17] = dose: 400.0 mg/kg/injection, schedule: Q04DX003 (ip), vehicle: saline

Measured: T/C

N#CC12CC3CC(CC(C3)C1)C2
inactive: dose: 5.0 mg/kg/injection, schedule: Q01DX009 (ip), vehicle: saline with Tween-80 104 % of control | dose: 10.0 mg/kg/injection, schedule: Q01DX009 (ip), vehicle: saline with Tween-80 98 % of control | dose: 20.0 mg/kg/injection, schedule: Q01DX001 (ip), vehicle: carboxymethylcellulose (CMC) 96 % of control | dose: 20.0 mg/kg/injection, schedule: Q01DX009 (ip), vehicle: saline with Tween-80 112 % of control | dose: 40.0 mg/kg/injection, schedule: Q01DX001 (ip), vehicle: carboxymethylcellulose (CMC) 95 % of control | dose: 80.0 mg/kg/injection, schedule: Q01DX001 (ip), vehicle: carboxymethylcellulose (CMC) 96 % of control

CCOC(=O)C1(CCC#N)CC(C#N)(c2ccccc2)CCC1=O (configuration not stated)
inactive: dose: 100.0 mg/kg/injection, schedule: Q04DX003 (ip), vehicle: acetone 98 % of control | dose: 200.0 mg/kg/injection, schedule: Q04DX003 (ip), vehicle: acetone 90 % of control | dose: 400.0 mg/kg/injection, schedule: Q04DX003 (ip), vehicle: acetone 93 % of control

O=C(c1ccccc1)c1ccc2ccc(F)cc2c1C(=O)O
inactive: [1] 113 % of control | dose: 100.0 mg/kg/injection, schedule: Q04DX003 (ip), vehicle: other 95 % of control | [2] 113 % of control | dose: 200.0 mg/kg/injection, schedule: Q04DX003 (ip), vehicle: other 103 % of control | dose: 400.0 mg/kg/injection, schedule: Q01DX009 (ip), vehicle: saline with Tween-80 107 % of control | dose: 400.0 mg/kg/injection, schedule: Q04DX003 (ip), vehicle: other 101 % of control

CC(C)CNCc1cc(Nc2ccnc3cc(Cl)ccc23)ccc1O
inactive: [3] 94 % of control | dose: 200.0 mg/kg/injection, schedule: Q04DX002 (ip), vehicle: saline 98 % of control

COc1c(OCC=C(C)C)cc2c(c1O)c(=O)c1ccccc1n2C
inactive: dose: 100.0 mg/kg/injection, schedule: Q01DX001 (ip), vehicle: carboxymethylcellulose (CMC) 100 % of control | dose: 200.0 mg/kg/injection, schedule: Q01DX001 (ip), vehicle: carboxymethylcellulose (CMC) 93 % of control | dose: 400.0 mg/kg/injection, schedule: Q01DX001 (ip), vehicle: carboxymethylcellulose (CMC) 98 % of control

N=c1c2ccccc2nnn1-c1ccccc1[N+](=O)[O-]
inactive: dose: 75.0 mg/kg/injection, schedule: Q01DX001 (ip), vehicle: other 92 % of control | dose: 150.0 mg/kg/injection, schedule: Q01DX001 (ip), vehicle: other 99 % of control | dose: 300.0 mg/kg/injection, schedule: Q01DX001 (ip), vehicle: other 92 % of control

O=C(COCC(=O)N/N=C/c1c(O)ccc2ccccc12)N/N=C/c1c(O)ccc2ccccc12
inactive: [4] 98 % of control | [5] 89 % of control | [6] 95 % of control

COc1cc(OC)c(NC(=O)/C=C/c2ccccc2)cc1Cl
inactive: [4] 92 % of control | [5] 100 % of control | [6] 95 % of control

Cc1cc(=O)[nH]c2c1CCCCC2
inactive: [7] 98 % of control | [8] 96 % of control | [9] 96 % of control

O=C1OC2CCCCC2OC1=O (configuration not stated)
inactive: [10] 101 % of control | [11] 101 % of control

O=C(Cc1ccccc1)NCc1ccc(Cl)cc1
inactive: dose: 100.0 mg/kg/injection, schedule: Q04DX002 (ip), vehicle: saline with Tween-80 96 % of control | dose: 200.0 mg/kg/injection, schedule: Q04DX002 (ip), vehicle: saline with Tween-80 101 % of control | dose: 400.0 mg/kg/injection, schedule: Q04DX002 (ip), vehicle: saline with Tween-80 114 % of control

CCCCCCCCCC(=O)N/N=C\c1cccc2ccccc12
inactive: dose: 25.0 mg/kg/injection, schedule: Q01DX009 (ip), vehicle: Klucel (hydroxypropylcellulose) (HPC) 90 % of control | dose: 50.0 mg/kg/injection, schedule: Q01DX009 (ip), vehicle: Klucel (hydroxypropylcellulose) (HPC) 103 % of control | [4] 87 % of control

O/N=C\c1ccccc1Cl
inactive: [1] 100 % of control | [12] 100 % of control | [2] 105 % of control | [13] 100 % of control | [14] 96 % of control

NC(N)=N/N=C(\C=C\C=C(c1ccc(Cl)cc1)c1ccc(Cl)cc1)c1ccc(Cl)cc1
inactive: dose: 12.5 mg/kg/injection, schedule: Q04DX003 (ip), vehicle: saline 95 % of control | dose: 25.0 mg/kg/injection, schedule: Q04DX003 (ip), vehicle: saline 95 % of control | dose: 50.0 mg/kg/injection, schedule: Q04DX003 (ip), vehicle: saline 91 % of control

CCN(CC)CC(=O)NC(CCN(C)C)c1cccc2ccccc12 (configuration not stated)
inactive: dose: 25.0 mg/kg/injection, schedule: Q04DX002 (ip), vehicle: saline 103 % of control | dose: 50.0 mg/kg/injection, schedule: Q04DX002 (ip), vehicle: saline 103 % of control | [3] 98 % of control

O=C(O)Cc1cccc(=O)n1Cc1ccccc1
inactive: dose: 75.0 mg/kg/injection, schedule: Q04DX003 (ip), vehicle: Klucel (hydroxypropylcellulose) (HPC) 98 % of control | dose: 150.0 mg/kg/injection, schedule: Q04DX003 (ip), vehicle: Klucel (hydroxypropylcellulose) (HPC) 100 % of control | dose: 300.0 mg/kg/injection, schedule: Q04DX003 (ip), vehicle: Klucel (hydroxypropylcellulose) (HPC) 102 % of control

O=[N+]([O-])c1ccc(OCc2ccc(S(=O)(=O)Oc3cccnc3)cc2)c(Cl)c1
inactive: [7] 94 % of control | [8] 98 % of control | [9] 89 % of control

COC(=O)C(C)CN1CCCCCC1 (configuration not stated)
inactive: dose: 100.0 mg/kg/injection, schedule: Q01DX009 (ip), vehicle: saline 97 % of control | [15] 100 % of control | dose: 200.0 mg/kg/injection, schedule: Q01DX009 (ip), vehicle: saline 104 % of control | [16] 104 % of control | dose: 400.0 mg/kg/injection, schedule: Q01DX009 (ip), vehicle: saline 95 % of control | [17] 102 % of control

O=c1/c(=C\c2ccccc2Cl)sc2n1CCN=2
inactive: [10] 100 % of control | [11] 105 % of control | dose: 400.0 mg/kg/injection, schedule: Q01DX001 (ip), vehicle: saline 105 % of control

CCOC(/C=C/c1ccccc1)OCC
inactive: [15] 93 % of control | [16] 93 % of control | [17] 98 % of control

O=C(Nc1cc(C(F)(F)F)ccc1Cl)SCCSC(=O)Nc1cc(C(F)(F)F)ccc1Cl
inactive: [4] 87 % of control | [12] 102 % of control | [5] 103 % of control | [13] 100 % of control | [6] 93 % of control | [14] 97 % of control

OC(COc1ccccc1)CC(O)(C(F)(F)F)C(F)(F)F (configuration not stated)
inactive: dose: 75.0 mg/kg/injection, schedule: Q01DX009 (ip), vehicle: saline with Tween-80 92 % of control | dose: 150.0 mg/kg/injection, schedule: Q01DX009 (ip), vehicle: saline with Tween-80 89 % of control | dose: 300.0 mg/kg/injection, schedule: Q01DX009 (ip), vehicle: saline with Tween-80 103 % of control

Oc1ccc(Cl)cc1Br
inactive: dose: 25.0 mg/kg/injection, schedule: Q01DX009 (ip), vehicle: saline with Tween-80 100 % of control | dose: 50.0 mg/kg/injection, schedule: Q01DX009 (ip), vehicle: saline with Tween-80 88 % of control | [1] 100 % of control

CC[C@H]1CN2CCc3cc(OC)c(OC)cc3[C@@H]2C[C@@H]1C[C@@H]1c2cc(OC)c(OC)cc2CCN1N=O
inactive: [15] 100 % of control

OCC(O)C(O)C(O)C(SCc1ccccc1)SCc1ccccc1 (configuration not stated)
inactive: dose: 75.0 mg/kg/injection, schedule: Q04DX002 (ip), vehicle: saline with Tween-80 93 % of control | dose: 150.0 mg/kg/injection, schedule: Q04DX002 (ip), vehicle: saline with Tween-80 117 % of control | dose: 300.0 mg/kg/injection, schedule: Q04DX002 (ip), vehicle: saline with Tween-80 101 % of control

CCOC(=O)C1C(=O)CC2c3nc4ccccc4cc3CN2C1=O (configuration not stated)
inactive: dose: 75.0 mg/kg/injection, schedule: Q01DX001 (ip), vehicle: saline 97 % of control | dose: 150.0 mg/kg/injection, schedule: Q01DX001 (ip), vehicle: saline 114 % of control
